From US11708344B2, “Flavone derivatives for the treatment and prophylaxis of hepatitis B virus disease” (Hoffmann-La Roche Inc., priority 2018, dated 2023)

Columns and labels:
[1] = system: HBeAg (surrogate marker for cccDNA) in HepDES19 cells; experiment: Engineered HepDES19 primary screen assay (HBeAg ELISA); assay type: cell-based, HBV; conditions: Hepatitis B virus, HepDES19, 120 h, read-out: IC50 (HBeAg level, HepDES19 primary screen assay), HepDES19 cells, 5 days compound incubation, HBeAg ELISA
Outline: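 IC50 values come from 4-parameter logistic fits of HBeAg ELISA signal, the cccDNA surrogate, with CCK-8 run in parallel for viability. Compounds at half-log dilutions with 1% DMSO were applied for 5 days at 37 °C to HepDES19 cells previously cultured 8 days without Tet.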

[2] = system: HBsAg in HBV-infected PHH; experiment: Cryopreserved primary human hepatocytes (PHH) HBV infection assay, extracellular HBsAg (CLIA); assay type: cell-based; conditions: Hepatitis B virus, Hepatocyte, 216 h, read-out: HBsAg IC50, Cryopreserved PHH infected with HBV, 9 days post-compound treatment, extracellular HBsAg
Outline: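 Cryopreserved PHH were infected with 5.8×10^6 HBV genome equivalents in medium with 4% PEG8000 and 1% DMSO. After 9 days of treatment, extracellular HBsAg was measured by CLIA, and IC50 was derived from a 4-parameter logistic fit.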

[3] = Human microsome stability assay; assay type: in vitro ADME; conditions: human liver microsomes, 1 μM test compound, 0.5 mg/mL microsomal protein, 37° C., pH 7.4, 0-30 minutes
Outline: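 Parent compound remaining was measured by LC-MS/MS at 0, 3, 6, 9, 15 and 30 min, following ACN quench. Reactions held 1 μM compound and 0.5 mg/mL human liver microsomal protein in pH 7.4 phosphate buffer at 37 °C, started by NADPH regeneration (1 mM NADP, 1 mM MgCl2); controls lacked NADPH.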

SMILES | IC50 [1] [µM] | IC50 [2] [µM] | Clearance of Human microsome [3] [mL/min/kg]
O=C(O)CCOc1cc(OC(F)(F)F)ccc1-c1cc(=O)c2cccc(Br)c2o1 [Example A022, 3-[2-(8-bromo-4-oxo-chromen-2-yl)-5-(trifluoromethoxy)phenoxy]propanoic acid] | 0.983 | 0.754 | 6.15
O=C(O)CCOc1cc(Br)ccc1-c1cc(=O)c2cccc(Cl)c2o1 [Example A004, 3-[5-bromo-2-(8-chloro-4-oxo-chromen-2-yl)phenoxy]propanoic acid] | 0.374 | 6.61 | 6.15
O=c1cc(-c2ccc(F)cc2OCCO[C@H]2C[C@H](C(=O)O)C2)oc2c(Cl)cccc12 [Example C034-B, Trans-3-[2-[2-(8-chloro-4-oxo-chromen-2-yl)-5-fluoro-phenoxy]ethoxy]cyclobutanecarboxylic acid] | 1.81 | 9.11 | 6.75
O=c1cc(-c2ccc(C(F)(F)F)cc2O[C@H]2C[C@H](C(=O)NS(=O)(=O)C3CC3)C2)oc2c(Cl)cccc12 [Example B043-B, trans-3-[2-(8-chloro-4-oxo-chromen-2-yl)-5-(trifluoromethyl)phenoxy]-N-cyclopropylsulfonyl-cyclobutanecarboxamide] | 1.14 | 3.7 | 6.15
O=c1cc(-c2ccccc2O[C@H]2C[C@@H](C(=O)O)C2)oc2c(Cl)cccc12 [Example B002-A, cis-3-[2-(8-chloro-4-oxo-chromen-2-yl)phenoxy]cyclobutanecarboxylic acid] | 0.162 | 2.02 | 6.15
Cc1ccc(-c2cc(=O)c3cccc(Br)c3o2)c(OCCC(=O)O)c1 [Example A024, 3-[2-(8-bromo-4-oxo-chromen-2-yl)-5-methyl-phenoxy]propanoic acid] | 0.57 | 4.09 | 6.61
